Measured values as given in US5567716A, “Trans and cis traumatic acid salts having cicatrizant activity associated to bacteriostatic, antiviral, antibiotic or antifungal activity” (priority 1992, dated 1996).

How the values were obtained:
E.coli ATCC 35218 = assay: microbe, parasite or virus in culture; type: cell-based; conditions: Table 2.b)3; test concentrations given in μg/ml
Method: (§1) 1. Culture Medium: Tryprone Soy Broth (TBS) - Biogenetics
(§2) Microbic standard strains from American Type Culture Collection (ATCC) were used, chosen among aerobic Gram positive and negative as follows:
(§3) The broths culture of the different species are prepared growing the standard strain (kept in Tryptic Soy Agar (TSA) slent at 5° C.) in Tryptone Soy Broth (TSB) for 12 hours at 37° C. 10 ml are then taken up from each culture, centrifugated for 3 times at 3500 PM washing each time the sediment using 10 ml of sterile saline solution. The sediment is resuspended in the saline solution until obtainment of a turbidity corresponding to the Mc Farland standard solution (the suspension title must be […] UFC/ml).
(§4) The compounds, dissolved as stock solution, were added to test tubes containing 5 ml TBS in order to obtain the desired Final concentration 10000; 5000; 1000; 200; 40; 2; 0.4; 0.05 μg/ml (culture medium maximal dilution=1/10).
(§5) 50 μl of bacterial suspension are added to the tube containing the compounds to be tested and incubated at 37° C.: the densitometric determination is made in comparison with Mc Farland standard solution 24 and 48 hours later.
(§6) After the incubation time the suspensions ape gently agitated; 50 μl of each suspension are inoculated in tubes containing […] of TSB and incubated at 37° C.; the densitometric determination is made 48 hours later.
(§7) BMC is defined by comparison between the two densitometric evaluation.

[1] = tested on: standard bacterial strains; assay: Antibacterial activity, diffusion method in agar-germs, all strains (2.a); type: cell-based; conditions: versus hexadecyltrimethylammonium bromide and benzyldimethylhexadecylammonium chloride; in words
Method: (§8) In a Tryprone Soy Agar diffusion medium ATCC (American Type Culture Collection) standard bacterial strains are inoculated, preparing a final solution of 10^6 cfu/g (colony forming unities) of the following strains:
(§9) Every plate contains 20 ml of a medium where 2 equidistant wells having a standard diameter are Formed and in each of these wells […] of the above described bacterial solution are inoculated. 2 plates are prepared for every couple of compounds to be tested at different concentrations, and For every strain, and each of these plates is compared with a white (sterile demineralized water inoculum). After the inoculum, the plates are placed in the refrigerator to favour diffusion and temporaneously blocking bacterial growth.
(§10) The compounds hexadecyltrimethylammonium traumatate and benzyldimethylhexadecylammonium traumatare respectively versus hexadecyl trimethylammonium bromide and benzyldimethylhexadecylammonium chloride are solubilized in demineralized water to Form solutions at the concentrations: 0.1; 0.5; and 1%.
(§11) The antibacterial effect is evaluated by measuring bacterial diffusion halo around the well vs white (halo absence).

B.subtilis ATCC 6633 = assay: Evaluation of bacteriostatic minimal concentration (BMC); type: cell-based; conditions: Table 2.b)5; test concentrations given in μg/ml
Method: as §1, §2, §3, §4, §5, §6, §7

[2] = tested on: St.epidermidis ATCC 14990; assay: as above; type: cell-based; conditions: Table 2.b)4; test concentrations given in μg/ml
Method: as §1, §2, §3, §4, §5, §6, §7

Ps.aeruginosa ATCC 35422 = assay: as above; type: cell-based; conditions: Table 2.b)1; test concentrations given in μg/ml
Method: as §1, §2, §3, §4, §5, §6, §7

C.albicans ATCC 10231 = assay: as above; type: cell-based; conditions: Table 2.b)6; test concentrations given in μg/ml
Method: as §1, §2, §3, §4, §5, §6, §7

St.aureus ATCC 65380 = assay: as above; type: cell-based; conditions: Table 2.b)2; test concentrations given in μg/ml
Method: as §1, §2, §3, §4, §5, §6, §7

[3] = tested on: Pseudomonas Aeruginosa ATCC.35422; assay: Antibacterial activity, diffusion method in agar-germs (2.a); type: cell-based
Method: as §8, §9, §10, §11

E. Coli ATCC.35218 = assay: as above; type: cell-based
Method: as §8, §9, §10, §11

PS Maltophila ATCC.13637 = assay: as above; type: cell-based
Method: as §8, §9, §10, §11

3T3 fibroblasts = assay: Cellular proliferation of 3T3 fibroblasts, neutral red colorimetry (1.1a); type: cell-based, Mice
Method: Experiments on 3T3 fibroblasts
Mice 3T3 fibroblasts cultures sown at a 40.000/ml concentration on plates having 6 wells in a DMEM culture medium enriched with 10% calf serum are used. After 24 hours culture, the 90 prepared wells are divided in order to allow the analyses of the compounds of the invention, every compound to be tested being used respectively at a concentration of 0.1, 1 and 10 μg/ml by subsequent evaluations after 48 and 72 hours of incubation.
Hexadecyltrimethylammoniun (ETA) traumatare: solubilized in water and brought to the desired final concentrations of 0.1. 1 and 10 μg/ml by progressive dilutions;
Ethanolamine traumatate: solubilized in water and brought to the final concentrations of 0.1, 1 and 10 μg/ml by progressive dilutions;
Traumatic acid: neutralized with sodium hydroxyde and solubilized in water, then brought to the final concentrations of 0.1, 1 and 10 μg/ml by progressive dilutions with the culture medium.
The compounds are added to the cells after 24 hours culture. The cells number is measured by colorimetry with the neutral red intravital stain after 24, 48, 72 hours of incubation.

[4] = tested on: Stafilococcus Aureus ATCC.65380; assay: Antibacterial activity, diffusion method in agar-germs (2.a); type: cell-based; parameters: unit not given here
Method: as §8, §9, §10, §11

[5] = tested on: Aspergillus Niger ATCC 16404; assay: as above; type: cell-based; parameters: unit not given here
Method: as §8, §9, §10, §11

[6] = tested on: Streptococcus Fecalis ATCC.291212; assay: as above; type: cell-based; parameters: unit not given here
Method: as §8, §9, §10, §11

[7] = tested on: Stafilococcus Epidermidis ATCC.14990; assay: as above; type: cell-based; parameters: unit not given here
Method: as §8, §9, §10, §11

[8] = tested on: Candida Albicans ATCC.10231; assay: as above; type: cell-based; parameters: unit not given here
Method: as §8, §9, §10, §11

PS Cepacia ATCC.25416 = assay: as above; type: cell-based; parameters: unit not given here
Method: as §8, §9, §10, §11

## hexadecyltrimethylammonium trans-traumatate [Hexadecyltrimethyl Ammonium Traumatate]
E.coli ATCC 35218
  MINIMAL BACTERIAL CONCENTRATION: 200.00
[1]
  antibacterial and bacteriostatic activity profile: antibacterial and bacteriostatic activity profile comparable to that of the comparison products
B.subtilis ATCC 6633
  MINIMAL BACTERIAL CONCENTRATION: 2.00
[2]
  MINIMAL BACTERIAL CONCENTRATION: 8.00
Ps.aeruginosa ATCC 35422
  MINIMAL BACTERIAL CONCENTRATION: > 10,000
C.albicans ATCC 10231
  MINIMAL BACTERIAL CONCENTRATION: 2.00
St.aureus ATCC 65380
  MINIMAL BACTERIAL CONCENTRATION: 1,000.00
[3]; sol. 0.1%
  bacterial diffusion halo: n.h.
[3]; sol. 0.5%
  bacterial diffusion halo: n.h.
[3]; sol. 1%
  bacterial diffusion halo: n.h.
E. Coli ATCC.35218; sol. 0.1%
  bacterial diffusion halo: n.h.
E. Coli ATCC.35218; sol. 0.5%
  bacterial diffusion halo: 13
E. Coli ATCC.35218; sol. 1%
  bacterial diffusion halo: 15
PS Maltophila ATCC.13637; sol. 0.1%
  bacterial diffusion halo: n.h.
PS Maltophila ATCC.13637; sol. 0.5%
  bacterial diffusion halo: 15
PS Maltophila ATCC.13637; sol. 1%
  bacterial diffusion halo: 21
3T3 fibroblasts; 0.1 μg/ml, in words
  effect on cells proliferation: able to affect cells proliferation according to a not statistically significant trend
3T3 fibroblasts; 1 μg/ml, in words, ETA salt > ethanolamine salt = traumatic acid
  effect on cellular proliferation: able to increase cellular proliferation
3T3 fibroblasts; 24 hours of incubation, 0.1 (head: μg/ml), control 0.579 ± 0.021
  cells numeration (colorimetric, neutral red): 0.575 ± 0.041
3T3 fibroblasts; 24 hours of incubation, 1.0 (head: μg/ml), control 0.579 ± 0.021
  cells numeration (colorimetric, neutral red): 0.619 ± 0.033
3T3 fibroblasts; 24 hours of incubation, 10.0 (head: μg/ml), control 0.579 ± 0.021
  cells numeration (colorimetric, neutral red): 0.491 ± 0.021
3T3 fibroblasts; 48 hours of incubation, 0.1 (head: μg/ml), control 1.334 ± 0.050
  cells numeration (colorimetric, neutral red): 1.553 ± 0.061
3T3 fibroblasts; 48 hours of incubation, 1.0 (head: μg/ml), control 1.334 ± 0.050
  cells numeration (colorimetric, neutral red): 1.501 ± 0.081
3T3 fibroblasts; 48 hours of incubation, 10.0 (head: μg/ml), control 1.334 ± 0.050, ** p < 0.01 significant reduction
  cells numeration (colorimetric, neutral red): 0.842 ± 0.078
3T3 fibroblasts; 72 hours of incubation, 0.1 (head: μg/ml), control 2.360 ± 0.125
  cells numeration (colorimetric, neutral red): 2.501 ± 0.131
3T3 fibroblasts; 72 hours of incubation, 1.0 (head: μg/ml), control 2.360 ± 0.125
  cells numeration (colorimetric, neutral red): 2.503 ± 0.100
3T3 fibroblasts; 72 hours of incubation, 10.0 (head: μg/ml), control 2.360 ± 0.125, ** p < 0.01 significant reduction
  cells numeration (colorimetric, neutral red): 1.385 ± 1.63
3T3 fibroblasts; side control experiment, ETA and ethanolamine salts > traumatic acid
  time necessary for the cells to reach the confluence: reduce the time normally necessary for the cells to reach the confluence
[4]; sol. 0.1%
  bacterial diffusion halo: 21
[4]; sol. 0.5%
  bacterial diffusion halo: 24
[4]; sol. 1%
  bacterial diffusion halo: 24
[5]; sol. 0.1%
  bacterial diffusion halo: 19
[5]; sol. 0.5%
  bacterial diffusion halo: 22
[5]; sol. 1%
  bacterial diffusion halo: 22
[6]; sol. 0.1%
  bacterial diffusion halo: 20
[6]; sol. 0.5%
  bacterial diffusion halo: 22
[6]; sol. 1%
  bacterial diffusion halo: 22
[7]; sol. 0.1%
  bacterial diffusion halo: 20
[7]; sol. 0.5%
  bacterial diffusion halo: 22
[7]; sol. 1%
  bacterial diffusion halo: 22
[8]; sol. 0.1%
  bacterial diffusion halo: 19
[8]; sol. 0.5%
  bacterial diffusion halo: 24
[8]; sol. 1%
  bacterial diffusion halo: 25
PS Cepacia ATCC.25416; sol. 0.1%
  bacterial diffusion halo: 18
PS Cepacia ATCC.25416; sol. 0.5%
  bacterial diffusion halo: 19
PS Cepacia ATCC.25416; sol. 1%
  bacterial diffusion halo: 22
